Laboratory results published in publication PMC2363969, “gp100/pmel17 and tyrosinase encode multiple epitopes recognized by Th1-type CD4+T cells” (British Journal of Cancer, 2001).
pIC50: −log10 of the molar value. Where two headings read alike, the source gives them in different places. Where a SMILES comes first, the peptide text is derived from it. Where no end group is shown, it is not given here.

Key:
CD4+ T cells [1] = assay: IFN-γ ELISPOT, normal donor CD4+ T cells after in vitro stimulation with peptide-pulsed autologous DC; format: cell-based, human; conditions: for T cell responses evaluated in ND-IVS (of 10): number of responding normal donors: normal HLA-DR4+ donors, n = 10, after 2 rounds of in vitro stimulation with autologous DC pulsed with peptide, IFN-γ ELISPOT
CD4+ T cells [2] = assay: IFN-γ ELISPOT, freshly-isolated peripheral blood CD4+ T cells vs peptide-pulsed T2.DR4; format: cell-based, human; conditions: positive if above normal donor mean + 3 S.D.; for T cell responses evaluated in MEL (of 5): number of responding patients: HLA-DR4+ melanoma patients with active disease, n = 5, 20 h IFN-γ ELISPOT; for T cell responses evaluated in MEL-NED (of 11): number of responding patients: HLA-DR4+ melanoma patients with no evidence of disease, n = 11, 20 h IFN-γ ELISPOT
HLA-DRB1*0401 = HLA-DRB1*0401 (Homo sapiens, UniProt P01903+P01911, A100K/A169T/F76Y/I96L/K127E/L162R/M171V/N62H/P40V/Q125Y/R42H/S133A/S149N/S66Y/V115G/V209L/W38E); assay: solid-state competitive-binding assay, purified HLA-DR4
HLA-DRB1*0404 = HLA-DRB1*0404 (Homo sapiens, UniProt P01903+P01911, A100R/A169T/F76Y/I96L/K127E/L162R/M171V/N62H/P40V/Q125Y/R42H/S133A/S149N/S66Y/V209L/W38E); assay: as above
[3] = read-out: Binding affinity (IC50) DRB1*0404
[4] = read-out: Binding affinity (IC50) DRB1*0401

Row | Compound | T cell responses evaluated in ND-IVS (of 10): number of responding normal donors (CD4+ T cells [1]) | T cell responses evaluated in MEL (of 5): number of responding patients (CD4+ T cells [2]) | T cell responses evaluated in MEL-NED (of 11): number of responding patients (CD4+ T cells [2]) | pIC50 (HLA-DRB1*0401; [4]) | further results
1 | WMHYYVSMDALLGGSEI [tyrosinase178-194, synthetic peptide derived from tyrosinase] | 3 donors (of 10) | 1 patients (of 5) | 1 patients (of 11) | – | immunogen grade on an arbitrary scale (CD4+ T cells [1]; in both melanoma patients and in vitro stimulated normal donors, weak / moderate / strong): moderate
2 | ALHIYMDGTMSQVQGSA [tyrosinase365-381D] | – | – | – | – | pIC50 (HLA-DRB1*0401): 7.77; pIC50 (HLA-DRB1*0404): 7.51
3 | CC(C)[C@H](NC(=O)[C@H](CO)NC(=O)[C@@H]1CCCN1C(=O)[C@@H](N)Cc1c[nH]c2ccccc12)C(=O)N[C@@H](Cc1ccccc1)C(=O)N[C@@H](Cc1ccc(O)cc1)C(=O)N[C@@H](CC(N)=O)C(=O)N[C@@H](CCCNC(=N)N)C(=O)N[C@H](C(=O)N[C@@H](CS)C(=O)N[C@@H](CCC(N)=O)C(=O)N[C@@H](CS)C(=O)N[C@@H](CO)C(=O)NCC(=O)N[C@@H](CC(N)=O)C(=O)N[C@@H](Cc1ccccc1)C(=O)O)[C@@H](C)O [tyrosinase80-95] (H-WPSVFYNRTCQCSGNF-OH; N-terminus and C-terminus assumed) | 0 donors (of 10) | 0 patients (of 5) | 0 patients (of 11) | – | –
4 | PGPVTAQVVLQAAIPLTSCGSS [gp100/pmel17283-304] | – | – | – | – | pIC50 (HLA-DRB1*0404; [3]): 7.29
5 | IVGILLVLMAVVLASLIYRRR [gp100599-619 /pmel17606-626] | 0 donors (of 10) | 0 patients (of 5) | 0 patients (of 11) | < 5.00 | pIC50 (HLA-DRB1*0404; [3]): < 5.00
6 | KRCLLHLAVIGALLAVGATKV [gp100/pmel176-26] | – | – | – | < 5.00 | –
7 | VSGLSIGTGRAMLGTHTMEVTVY [gp100/pmel17167-189] | – | – | – | < 5.00 | –
8 | VYVWKTWGQYWQVLGGPVS [gp100/pmel17150-168] | 0 donors (of 10) | 0 patients (of 5) | 0 patients (of 11) | – | pIC50 (HLA-DRB1*0401): < 5.00; pIC50 (HLA-DRB1*0404): < 5.00
9 | CC[C@H](C)[C@H](NC(=O)[C@H](CCC(N)=O)NC(=O)[C@H](Cc1c[nH]cn1)NC(=O)[C@H](CC(C)C)NC(=O)[C@@H](NC(=O)[C@H](CC(C)C)NC(=O)[C@H](CCC(N)=O)NC(=O)[C@H](CS)NC(=O)[C@H](C)NC(=O)[C@@H]1CCCN1C(=O)[C@H](CO)NC(=O)[C@@H]1CCCN1C(=O)[C@H](CC(C)C)NC(=O)[C@@H](NC(=O)[C@@H]1CCCN1C(=O)[C@H](CCC(N)=O)NC(=O)[C@H](CS)NC(=O)[C@@H](N)CC(C)C)C(C)C)C(C)C)C(=O)N[C@@H](CC(C)C)C(=O)N[C@@H](CCCCN)C(=O)NCC(=O)NCC(=O)O [gp100/pmel17540-561] (H-LCQPVLPSPACQLVLHQILKGG-OH) | – | – | – | < 5.00 | –
